± gives the expanded uncertainty stated by the source.
Columns and labels:
[1] = xn = mol fraction of the nth substance listed; conditions: x2 = 0; for surface tension liquid-gas: Maximal bubble pressure; for mass density: 100 kPa, Liquid, Vibrating tube method
[2] = for surface tension liquid-gas: Maximal bubble pressure; for mass density: 100 kPa, Liquid, Vibrating tube method

Row | Structure (SMILES) | surface tension liquid-gas ([1]; 288.15 K) | mass density ([1]; 288.15 K) | surface tension liquid-gas ([1]; 293.15 K) | mass density ([1]; 293.15 K) | surface tension liquid-gas ([1]; 298.15 K) | mass density ([1]; 298.15 K) | surface tension liquid-gas ([2]; 288.15 K) | mass density ([2]; 288.15 K) | surface tension liquid-gas ([2]; 293.15 K) | mass density ([2]; 293.15 K) | surface tension liquid-gas ([2]; 298.15 K) | mass density ([2]; 298.15 K) | surface tension liquid-gas ([2]; 303.15 K) | mass density ([2]; 303.15 K) | surface tension liquid-gas ([2]; 308.15 K) | mass density ([2]; 308.15 K) | surface tension liquid-gas ([2]; 313.15 K) | mass density ([2]; 313.15 K) | surface tension liquid-gas ([2]; 318.15 K) | mass density ([2]; 318.15 K) | also measured
1 | CCO [ethanol] + CCn1cc[n+](CCOC)c1.O=S(=O)([O-])C(F)(F)F | 21.9 ± 1.5 mN/m | 794.308 ± 1.3 kg/m3 | 21.4 ± 1.5 mN/m | 790.041 ± 1.3 kg/m3 | 20.9 ± 1.5 mN/m | 785.746 ± 1.3 kg/m3 | – | – | – | – | – | – | – | – | – | – | – | – | – | – | surface tension liquid-gas ([1]; 303.15 K): 20.5 ± 1.5 mN/m; mass density ([1]; 303.15 K): 781.43 ± 1.3 kg/m3; surface tension liquid-gas ([1]; 308.15 K): 20 ± 1.5 mN/m; mass density ([1]; 308.15 K): 777.078 ± 1.3 kg/m3; surface tension liquid-gas ([1]; 313.15 K): 19.5 ± 1.5 mN/m; mass density ([1]; 313.15 K): 772.688 ± 1.3 kg/m3; surface tension liquid-gas ([1]; 318.15 K): 19 ± 1.5 mN/m; mass density ([1]; 318.15 K): 768.257 ± 1.3 kg/m3
2 | CCCO [propan-1-ol] + CCn1cc[n+](CCOC)c1.O=S(=O)([O-])C(F)(F)F | 22.9 ± 1.5 mN/m | 807.507 ± 1.3 kg/m3 | 22.5 ± 1.5 mN/m | 803.519 ± 1.3 kg/m3 | 22.1 ± 1.5 mN/m | 799.514 ± 1.3 kg/m3 | – | – | – | – | – | – | – | – | – | – | – | – | – | – | surface tension liquid-gas ([1]; 303.15 K): 21.8 ± 1.5 mN/m; mass density ([1]; 303.15 K): 795.48 ± 1.3 kg/m3; surface tension liquid-gas ([1]; 308.15 K): 21.4 ± 1.5 mN/m; mass density ([1]; 308.15 K): 791.416 ± 1.3 kg/m3; surface tension liquid-gas ([1]; 313.15 K): 21 ± 1.5 mN/m; mass density ([1]; 313.15 K): 787.306 ± 1.3 kg/m3; surface tension liquid-gas ([1]; 318.15 K): 20.6 ± 1.5 mN/m; mass density ([1]; 318.15 K): 783.149 ± 1.3 kg/m3
3 | CC(C)O [propan-2-ol] + CCn1cc[n+](CCOC)c1.O=S(=O)([O-])C(F)(F)F | 20.6 ± 1.5 mN/m | 789.224 ± 1.3 kg/m3 | 20.2 ± 1.5 mN/m | 785.088 ± 1.3 kg/m3 | 19.8 ± 1.5 mN/m | 780.887 ± 1.3 kg/m3 | – | – | – | – | – | – | – | – | – | – | – | – | – | – | surface tension liquid-gas ([1]; 303.15 K): 19.5 ± 1.5 mN/m; mass density ([1]; 303.15 K): 776.617 ± 1.3 kg/m3; surface tension liquid-gas ([1]; 308.15 K): 19.1 ± 1.5 mN/m; mass density ([1]; 308.15 K): 772.266 ± 1.3 kg/m3; surface tension liquid-gas ([1]; 313.15 K): 18.7 ± 1.5 mN/m; mass density ([1]; 313.15 K): 767.829 ± 1.3 kg/m3; surface tension liquid-gas ([1]; 318.15 K): 18.4 ± 1.5 mN/m; mass density ([1]; 318.15 K): 763.293 ± 1.3 kg/m3
4 | CCO [ethanol] | – | – | – | – | – | – | 21.9 ± 1.5 mN/m | 794.308 ± 1.3 kg/m3 | 21.4 ± 1.5 mN/m | 790.041 ± 1.3 kg/m3 | 20.9 ± 1.5 mN/m | 785.746 ± 1.3 kg/m3 | 20.5 ± 1.5 mN/m | 781.43 ± 1.3 kg/m3 | 20 ± 1.5 mN/m | 777.078 ± 1.3 kg/m3 | 19.5 ± 1.5 mN/m | 772.688 ± 1.3 kg/m3 | 19 ± 1.5 mN/m | 768.257 ± 1.3 kg/m3 | –
5 | CC(C)O [propan-2-ol] | – | – | – | – | – | – | 20.6 ± 1.5 mN/m | 789.224 ± 1.3 kg/m3 | 20.2 ± 1.5 mN/m | 785.088 ± 1.3 kg/m3 | 19.8 ± 1.5 mN/m | 780.887 ± 1.3 kg/m3 | 19.5 ± 1.5 mN/m | 776.617 ± 1.3 kg/m3 | 19.1 ± 1.5 mN/m | 772.266 ± 1.3 kg/m3 | 18.7 ± 1.5 mN/m | 767.829 ± 1.3 kg/m3 | 18.4 ± 1.5 mN/m | 763.293 ± 1.3 kg/m3 | –
6 | CCCO [propan-1-ol] | – | – | – | – | – | – | 22.9 ± 1.5 mN/m | 807.507 ± 1.3 kg/m3 | 22.5 ± 1.5 mN/m | 803.519 ± 1.3 kg/m3 | 22.1 ± 1.5 mN/m | 799.514 ± 1.3 kg/m3 | 21.8 ± 1.5 mN/m | 795.48 ± 1.3 kg/m3 | 21.4 ± 1.5 mN/m | 791.416 ± 1.3 kg/m3 | 21 ± 1.5 mN/m | 787.306 ± 1.3 kg/m3 | 20.6 ± 1.5 mN/m | 783.149 ± 1.3 kg/m3 | –
7 | CCn1cc[n+](CCOC)c1.O=S(=O)([O-])C(F)(F)F | – | – | – | – | – | – | 36.3 ± 1.5 mN/m | 1348.94 ± 1.4 kg/m3 | 36.1 ± 1.5 mN/m | 1344.66 ± 1.4 kg/m3 | 35.8 ± 1.5 mN/m | 1340.41 ± 1.4 kg/m3 | 35.5 ± 1.5 mN/m | 1336.17 ± 1.4 kg/m3 | 35.3 ± 1.5 mN/m | 1331.96 ± 1.4 kg/m3 | 35.1 ± 1.5 mN/m | 1327.77 ± 1.4 kg/m3 | 34.9 ± 1.5 mN/m | 1323.6 ± 1.4 kg/m3 | –

Reference: the NIST ThermoML archive (doi:10.1016/j.tca.2019.178383)
